The text below walks through data of patent EP4467141A1, “PYRAZOLO-QUINOLINES AS SELECTIVE INHIBITORS OF GENOTOXIC STRESS-INDUCED IKK/NF- KB PATHWAYS FOR CANCER THERAPY” (Max-Delbrück-Centrum für Molekulare Medizin in der …, priority 2023, dated 2024).

As usually defined, the inhibition is the relative decrease from the control value, in per cent.

Common to all, as to experiment: Kinase panel study
What all share (type): biochemical
Details in all cases: read-out: Percentage of inhibition; for inhibition at 1 µM: 1000nM; for inhibition at 10 µM: 10000nM

The target in one experiment is T1, PRKCB2 (PKC beta II) (Homo sapiens, UniProt P05771).
T1 construct: purchased Thermo Fisher Scientific
T1 sequence (P05771 1-673 isoform P05771-2): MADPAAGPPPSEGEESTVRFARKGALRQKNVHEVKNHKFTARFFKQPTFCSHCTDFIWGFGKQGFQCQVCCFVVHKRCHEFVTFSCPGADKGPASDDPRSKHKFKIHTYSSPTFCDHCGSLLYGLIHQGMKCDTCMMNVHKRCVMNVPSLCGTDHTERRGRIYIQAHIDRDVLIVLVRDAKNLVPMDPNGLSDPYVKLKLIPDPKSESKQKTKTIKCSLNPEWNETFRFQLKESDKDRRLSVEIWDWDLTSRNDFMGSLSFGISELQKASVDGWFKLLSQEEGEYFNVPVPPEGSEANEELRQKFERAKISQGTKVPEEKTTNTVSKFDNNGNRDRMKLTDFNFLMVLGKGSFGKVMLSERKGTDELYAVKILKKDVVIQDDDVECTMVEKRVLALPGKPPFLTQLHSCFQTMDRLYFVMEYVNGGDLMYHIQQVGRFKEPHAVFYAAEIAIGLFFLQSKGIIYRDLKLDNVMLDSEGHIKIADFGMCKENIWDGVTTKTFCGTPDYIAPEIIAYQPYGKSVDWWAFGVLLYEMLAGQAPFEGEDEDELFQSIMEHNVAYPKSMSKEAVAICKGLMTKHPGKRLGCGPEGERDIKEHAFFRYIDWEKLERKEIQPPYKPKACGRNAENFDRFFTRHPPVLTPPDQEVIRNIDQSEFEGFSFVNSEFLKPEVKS
In short, it runs like this: (§1)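 Outsourced panel screen. Format: ZLyte or Adapta, run per the manufacturer's procedures. Read-out: inhibition (%) at a single dose of 10 µM or 1 µM; IC50s also generated.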

For a further experiment, the target named is T2, RPS6KB2 (p70S6Kb) (Homo sapiens, UniProt Q9UBS0).
T2 construct: purchased Thermo Fisher Scientific
T2 sequence (Q9UBS0 whole entry): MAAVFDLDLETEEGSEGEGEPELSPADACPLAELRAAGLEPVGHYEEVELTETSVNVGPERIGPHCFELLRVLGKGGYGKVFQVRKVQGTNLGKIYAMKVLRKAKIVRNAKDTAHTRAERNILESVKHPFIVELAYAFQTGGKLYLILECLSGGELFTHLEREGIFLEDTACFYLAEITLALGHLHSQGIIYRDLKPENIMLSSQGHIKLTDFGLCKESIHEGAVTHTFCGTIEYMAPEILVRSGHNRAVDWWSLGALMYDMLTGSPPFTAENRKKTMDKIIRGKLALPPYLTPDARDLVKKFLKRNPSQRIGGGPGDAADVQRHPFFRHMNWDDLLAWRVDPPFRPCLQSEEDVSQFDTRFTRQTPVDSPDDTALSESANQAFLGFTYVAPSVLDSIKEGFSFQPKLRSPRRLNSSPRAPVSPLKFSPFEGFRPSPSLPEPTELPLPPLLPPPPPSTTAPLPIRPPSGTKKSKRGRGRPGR
A digest of the protocol:
as §1

The target in the next experiment is T3, PLK1 (Homo sapiens, UniProt P53350).
T3 construct: purchased Thermo Fisher Scientific
T3 sequence (P53350 whole entry): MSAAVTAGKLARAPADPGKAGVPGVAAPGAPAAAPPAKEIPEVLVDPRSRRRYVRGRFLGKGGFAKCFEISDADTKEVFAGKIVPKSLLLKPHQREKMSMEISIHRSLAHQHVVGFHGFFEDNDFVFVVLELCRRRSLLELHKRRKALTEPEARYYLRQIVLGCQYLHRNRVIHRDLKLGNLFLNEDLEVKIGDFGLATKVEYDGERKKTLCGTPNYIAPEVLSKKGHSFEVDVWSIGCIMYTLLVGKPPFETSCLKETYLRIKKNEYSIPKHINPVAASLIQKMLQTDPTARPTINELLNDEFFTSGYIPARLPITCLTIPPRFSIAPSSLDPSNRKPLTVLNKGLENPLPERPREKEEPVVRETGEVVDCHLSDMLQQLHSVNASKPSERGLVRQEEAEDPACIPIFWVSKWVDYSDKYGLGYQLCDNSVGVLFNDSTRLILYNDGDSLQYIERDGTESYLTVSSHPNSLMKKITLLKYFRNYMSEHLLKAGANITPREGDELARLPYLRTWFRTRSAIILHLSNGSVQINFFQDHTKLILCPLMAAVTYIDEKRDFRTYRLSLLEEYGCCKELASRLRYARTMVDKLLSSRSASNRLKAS
A digest of the protocol:
as §1

The target in the next experiment is T4, PTK2B (FAK2) (Homo sapiens, UniProt Q14289).
T4 construct: purchased Thermo Fisher Scientific
T4 sequence (Q14289 whole entry): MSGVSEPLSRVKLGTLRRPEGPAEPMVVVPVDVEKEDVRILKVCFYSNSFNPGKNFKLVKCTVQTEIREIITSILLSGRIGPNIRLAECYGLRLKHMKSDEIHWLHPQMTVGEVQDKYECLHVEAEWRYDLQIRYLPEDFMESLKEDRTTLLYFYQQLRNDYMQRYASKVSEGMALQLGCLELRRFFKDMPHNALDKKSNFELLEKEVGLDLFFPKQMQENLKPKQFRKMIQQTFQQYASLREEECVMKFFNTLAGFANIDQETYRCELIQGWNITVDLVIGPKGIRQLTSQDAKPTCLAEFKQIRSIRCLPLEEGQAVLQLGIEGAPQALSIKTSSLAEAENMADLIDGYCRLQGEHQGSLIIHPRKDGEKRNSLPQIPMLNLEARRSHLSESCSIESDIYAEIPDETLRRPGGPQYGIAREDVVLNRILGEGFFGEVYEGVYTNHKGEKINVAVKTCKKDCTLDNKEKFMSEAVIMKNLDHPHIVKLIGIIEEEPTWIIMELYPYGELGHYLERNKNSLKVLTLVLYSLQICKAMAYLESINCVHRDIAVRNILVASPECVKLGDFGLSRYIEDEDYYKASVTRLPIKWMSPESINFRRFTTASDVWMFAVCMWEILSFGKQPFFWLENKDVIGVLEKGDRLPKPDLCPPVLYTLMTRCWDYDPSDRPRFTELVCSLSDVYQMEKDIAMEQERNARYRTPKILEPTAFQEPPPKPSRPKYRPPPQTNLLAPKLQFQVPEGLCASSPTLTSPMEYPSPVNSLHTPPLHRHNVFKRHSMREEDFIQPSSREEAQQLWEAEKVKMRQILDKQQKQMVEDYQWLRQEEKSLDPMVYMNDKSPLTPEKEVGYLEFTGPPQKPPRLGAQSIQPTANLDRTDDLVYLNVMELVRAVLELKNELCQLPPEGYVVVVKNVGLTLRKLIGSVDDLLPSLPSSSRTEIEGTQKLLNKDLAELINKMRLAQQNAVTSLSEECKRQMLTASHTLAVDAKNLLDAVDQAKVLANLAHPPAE
In short, it runs like this:
as §1

For another experiment, the target named is T5, MATK (HYL) (Homo sapiens, UniProt P42679).
T5 construct: purchased Thermo Fisher Scientific
T5 sequence (P42679 1-507): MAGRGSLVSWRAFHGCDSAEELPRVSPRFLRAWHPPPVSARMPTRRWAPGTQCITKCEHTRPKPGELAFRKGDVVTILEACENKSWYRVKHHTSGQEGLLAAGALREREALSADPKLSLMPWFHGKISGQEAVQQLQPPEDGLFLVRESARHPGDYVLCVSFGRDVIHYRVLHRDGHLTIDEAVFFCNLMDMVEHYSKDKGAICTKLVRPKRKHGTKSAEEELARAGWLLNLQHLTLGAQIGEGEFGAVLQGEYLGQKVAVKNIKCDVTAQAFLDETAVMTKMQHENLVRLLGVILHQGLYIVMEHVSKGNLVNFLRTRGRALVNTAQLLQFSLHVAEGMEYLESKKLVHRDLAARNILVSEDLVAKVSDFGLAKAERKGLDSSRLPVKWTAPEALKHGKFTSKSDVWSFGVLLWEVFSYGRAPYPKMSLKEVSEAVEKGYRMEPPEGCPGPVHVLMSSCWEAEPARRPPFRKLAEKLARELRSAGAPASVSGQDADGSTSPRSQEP
A digest of the protocol:
as §1

The target of a further experiment is T6, NUAK1 (ARK5) (Homo sapiens, UniProt O60285).
T6 construct: purchased Thermo Fisher Scientific
T6 sequence (O60285 1-661): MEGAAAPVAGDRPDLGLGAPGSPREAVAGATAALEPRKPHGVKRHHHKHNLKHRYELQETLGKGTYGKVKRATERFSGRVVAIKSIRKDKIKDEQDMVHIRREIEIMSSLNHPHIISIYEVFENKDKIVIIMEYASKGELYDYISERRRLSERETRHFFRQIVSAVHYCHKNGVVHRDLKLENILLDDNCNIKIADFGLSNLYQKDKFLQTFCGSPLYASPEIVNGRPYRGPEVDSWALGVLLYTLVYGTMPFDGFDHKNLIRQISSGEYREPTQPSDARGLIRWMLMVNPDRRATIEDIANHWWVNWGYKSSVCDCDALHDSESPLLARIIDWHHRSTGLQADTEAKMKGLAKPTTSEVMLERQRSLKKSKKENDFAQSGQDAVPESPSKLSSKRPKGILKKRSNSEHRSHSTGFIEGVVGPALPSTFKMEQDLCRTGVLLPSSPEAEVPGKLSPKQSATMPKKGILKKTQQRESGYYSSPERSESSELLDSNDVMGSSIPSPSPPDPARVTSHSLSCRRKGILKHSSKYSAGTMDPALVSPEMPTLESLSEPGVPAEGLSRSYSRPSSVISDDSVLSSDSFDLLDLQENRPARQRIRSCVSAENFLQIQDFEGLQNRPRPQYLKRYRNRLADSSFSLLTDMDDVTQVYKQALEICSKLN
A digest of the protocol: as §1

Another experiment has as its target T7, MAPKAPK3 (Homo sapiens, UniProt Q16644).
T7 construct: purchased Thermo Fisher Scientific
A digest of the protocol:
as §1

T7 sequence (Q16644 whole entry): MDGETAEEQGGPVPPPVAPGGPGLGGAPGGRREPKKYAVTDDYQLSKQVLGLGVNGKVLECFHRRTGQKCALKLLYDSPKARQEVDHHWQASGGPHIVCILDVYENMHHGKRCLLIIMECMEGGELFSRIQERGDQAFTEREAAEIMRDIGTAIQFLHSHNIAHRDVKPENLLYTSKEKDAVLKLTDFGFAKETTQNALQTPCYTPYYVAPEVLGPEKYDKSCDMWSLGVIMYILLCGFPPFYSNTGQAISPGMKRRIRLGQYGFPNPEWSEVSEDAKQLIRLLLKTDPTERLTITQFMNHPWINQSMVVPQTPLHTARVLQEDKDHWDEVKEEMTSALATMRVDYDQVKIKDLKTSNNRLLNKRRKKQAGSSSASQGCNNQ

Take `COc1ccc2c(c1OC)c(=O)n1c3ccc(O)cc3c3ccnc2c31` [MW01, 5-Hydroxy-10,11-dimethoxy-9H-benzo[c]indolo[3,2,1-ij][1,5]naphthyridin-9-one]: the inhibition at 1 µM worked out at 11% at PRKCB2 (PKC beta II); 7% on RPS6KB2 (p70S6Kb); 5% at PLK1; 2% at PTK2B (FAK2); 14% on MATK (HYL); 48% at NUAK1 (ARK5). Moreover, the inhibition at 1 µM at MAPKAPK3 was 8%. Also, the inhibition at 10 µM at PRKCB2 (PKC beta II) came to 14%; on RPS6KB2 (p70S6Kb) it was 1%; at PLK1, 3%; at PTK2B (FAK2), 9%; at MATK (HYL), 2%; on NUAK1 (ARK5), 66%. Moreover, the inhibition at 10 µM on MAPKAPK3 came out at 24%.

Turning to `COc1ccc2cc3c(N)nn(C(=O)c4cccc(N(C)C)c4)c3nc2c1` [MW05, (3-Amino-7-methoxypyrazolo[3,4-b]quinolin-1-yl)-[3-(dimethylamino)phenyl]methanone], the inhibition at 1 µM on PRKCB2 (PKC beta II) was 9%; on RPS6KB2 (p70S6Kb), 3%; on PLK1, 6%; at PTK2B (FAK2), -2%; on MATK (HYL) it was 13%; at NUAK1 (ARK5) it was 6%. For the same molecule, the inhibition at 1 µM on MAPKAPK3 was determined as 10%. The inhibition at 10 µM on PRKCB2 (PKC beta II) is -5%; at RPS6KB2 (p70S6Kb) it was 15%; on PLK1, 6%; at PTK2B (FAK2), -7%; on MATK (HYL), 13%; at NUAK1 (ARK5), 11%. Further, the inhibition at 10 µM on MAPKAPK3 worked out at 3%.
